Results taken from US11459375B2, “Cyclic peptides for the treatment of Graves' disease” (advanceCOR GmbH, priority 2017, dated 2022).
Peptide text beside a SMILES is read from it.

How the values were obtained:
Ad-TSHR-immunized mice [1] = assay: serum thyroxin (T4) levels in Graves' disease mouse model; type: in vivo, BALB/c mice; conditions: 1 mg/kg IV 4-weekly, after start of therapy (week 11)
Experimental: In FIG. 5 the effects of peptide therapy on serum thyroxin levels were evaluated. The measurements were carried out in Ad-TSHR-immunized mice treated by either 4-weekly injections with vehicle (0.9% NaCl, “Graves' no therapy”, n=25 mice), or administrations of 1 mg/kg body weight of peptide of the invention 836 (12 mice), or of peptide 829 (13 mice), or TSHR-Fc (18 mice), or of control peptide 835 (13 mice). In addition, age-matched immunologically naïve unimmunized mice (“healthy”, 19 animals) were investigated. Data are represented as means±SEM. Significance over time was tested by analysis of variance (ANOVA) of groups at given time points, and controlled by ANOVA for repeated measurements within one group, followed by LSD post-hoc testing. *p<0.05, and **p<0.005, compared to the TSHR-immunized group treated with only NaCl (“Graves' no therapy”).
(§1) The study protocol used three 3-weekly immunizations (“initiation”) and followed by a “maintenance” phase with further regular 4-weekly boosts until the 9th immunisation, as described before (22). Mice were randomly assigned to therapeutic groups. Therapy (either 1 mg/kg body weight peptides or 0.9% NaCl vehicle control) was given 1 week after the 4th immunization by IV injection into a tail vein, and then continued at 4-weekly intervals, as described before for the treatment of anti-β1AR (16). The fusion protein TSHR-Fc was given IV at identical times at doses of 1 mg/kg, but had to be applied together with the histamine receptor blocker clemastin (Tavegil®) at a dose of 0.02 mg per mouse (25 g body weight) to avoid clinical symptoms of allergic reaction, which had been observed in initial pilot studies of TSHR-Fc administration in mice.
Total thyroxine (T4) was measured by immunoassay kit (#T4044T-100, Calbiotech Inc, Austin, Calif.) in duplicate determination.

Ad-TSHR-immunized mice [2] = assay: thyroid size at end of experiment in Graves' disease mouse model; type: in vivo, BALB/c mice; conditions: 1 mg/kg IV 4-weekly
Experimental: Representative images are shown. In FIG. 4B, the effects of peptide therapy on thyroid sizes were investigated at the end of the experiment. The measurements were carried out in Ad-TSHR-immunized mice treated by either 4-weekly injections with vehicle (0.9% NaCl, “Graves' no therapy”, n=25 mice), or administrations of 1 mg/kg body weight of peptide of the invention 836 (12 mice), or of peptide 829 (13 mice), or of TSHR-Fc (18 mice), or of control peptide 835 (13 mice). In addition, age-matched immunologically naïve unimmunized mice (“healthy”, 19 animals) were investigated. The mean thyroid sizes in mm^3 are shown with SEM. Differences between groups were tested by AVOVA followed by post hoc LSD testing. ** indicates statistical significance (p<0.001) compared to the TSHR-immunized group treated with only NaCl (“Graves' no therapy”).
as §1
After euthanasia, dissection of the thyroid glands was performed under a stereomicroscope, as described before (22). Briefly, cross cuts at the level above the larynx and below the seventh cartilage ring were made and the glands with the tracheae and oesophagi were removed from the necks. Tissue blocks were kept in 4% neutral para-formaldehyde (PFA), washed in PBS 3 times and embedded in optimum cutting temperature (OCT) formulation (Tissue-Tek® O.C.T.™ compound, VWR Chemicals, Leuven, Belgium). Consecutive 5 μm-thick cross sections were cut at a fixed distance of 500 μm using a Leica microtome CM 1850 Cryostat (temperature at −19° C.) and mounted on Thermo Polysine slides (Thermo Scientific, Cat J2800AMNZ). […] Thyroid volumes (mm^3) were calculated from the sum of the areas of each section over the whole cutting region. Myocardial volumes (mm^3) were calculated in a similar way as described for thyroid glands from the sum of the areas of each section over whole cutting region (5 to 6 slides, depending on respective size of the hearts). […]

Ad-TSHR-immunized mice [3] = assay: heart weights upon necropsy; type: in vivo, BALB/c mice; conditions: 1 mg/kg IV 4-weekly, necropsy at end of experiment
Experimental: (§2) In FIG. 7 the effect of the peptide therapy on heart rates at various times during the experiment (A), and on heart weights (B) and cardiac ventricular volumes (C) at the end of the experiment were evaluated in all animals. The measurements were carried out in Ad-TSHR-immunized mice treated by either 4-weekly injections with vehicle (0.9% NaCl, “Graves' no therapy”, n=25 mice), or administrations of 1 mg/kg body weight of peptide of the invention 836 (12 mice), or of peptide 829 (13 mice), or TSHR-Fc (18 mice). In addition, age-matched immunologically naïve unimmunized mice (“healthy”, 19 animals) were investigated. Data are represented as mean±SEM. Significance over time was tested by analysis of variance (ANOVA) of groups at given time points, and controlled by ANOVA for repeated measurements within one group, followed by LSD post-hoc testing. *p<0.05, and **p<0.005, compared to the TSHR-immunized group treated with only NaCl (“Graves' no therapy”).
Due to unavailability of some fine histological sections, analysis of this parameter in mice treated with other peptides could unfortunately not be completed.

Ad-TSHR-immunized mice [4] = assay: ECG heart rates in Graves' disease mouse model; type: in vivo, BALB/c mice; conditions: 1 mg/kg IV 4-weekly, ECG under anaesthesia
Experimental: as §2
When mice were subjected to anaesthesia for immunisation, their heart function was monitored with an electrocardiogram (ECG amplifier module, Harvard Apparatus, Hugo Sachs electronics) and recorded with a special software, which allows to determine the heart rate from the ECG reading (Haemodyn, Hugo Sachs electronics). ECG was also performed in anaesthesia before animals were euthanized for histological exam at the end of the study.

[5] = type: physicochemical
From the text: Peptide 836 is a 24-meric cyclic peptide corresponding to the eighth TSHR LRD loop, and peptide 829 (also 24-meric) to the first loop of the TSHR LRD.

| Molecule | serum thyroxin (T4) levels (Ad-TSHR-immunized mice [1]) | thyroid size (Ad-TSHR-immunized mice [2]) | heart weights (Ad-TSHR-immunized mice [3]) | heart rate (Ad-TSHR-immunized mice [4]) | solubility in water [5] |
| --- | --- | --- | --- | --- | --- |
| CC[C@H](C)[C@@H]1NC(=O)[C@H](C(C)C)NC(=O)[C@H]([C@@H](C)O)NC(=O)[C@H](CC(C)C)NC(=O)[C@H](Cc2ccc(O)cc2)NC(=O)[C@H](CCCCN)NC(=O)[C@H](CC(N)=O)NC(=O)[C@H](CCCCN)NC(=O)[C@H](CC(N)=O)NC(=O)[C@H](CC(C)C)NC(=O)[C@H](Cc2ccc(O)cc2)NC(=O)[C@H](C(C)C)NC(=O)[C@H](C)NC(=O)[C@H](CC(=O)O)NC(=O)[C@H](CC(C)C)NC(=O)[C@H](CCCCN)NC(=O)[C@H]([C@@H](C)O)NC(=O)CNC(=O)[C@H](CC(N)=O)NC(=O)[C@H](Cc2ccccc2)NC(=O)[C@H](C)NC(=O)[C@H](Cc2ccc(O)cc2)NC(=O)CNC(=O)[C@H](CC(=O)O)NC1=O [peptide 836] (cyclo(GYAFNGTKLDAVYLNKNKYLTVID)) | progressively decreasing T4 levels, which consecutively reverted to normal values | decreased thyroid sizes | significantly reduced heart weights | no further increase, and significantly decreased resting heart rates at later time points | easily soluble in water |
| TSHR-Fc: fusion protein: first 289 amino acids of human TSH receptor (A-subunit), GGR linker and Fc portion of human IgG2 | progressively decreasing T4 levels, which consecutively reverted to normal values | decreased thyroid sizes | trends towards reduced heart weights which did not reach statistical significance | no further increase, and significantly decreased resting heart rates at later time points |  |
| SPPCECHQEEDFRVTCKDIQRIPS [peptide 829] | a trend which did not reach statistical significance | a trend which did not reach statistical significance | trends towards reduced heart weights which did not reach statistical significance | a trend which did not reach statistical significance | easily soluble in water |
